Results: patent US20260294874A1, “COMPOSITIONS COMPRISING MODULATORS OF RIBONUCLEOPROTEIN GRANULE FORMATION AND DISSOLUTION AND METHODS OF USE THEREOF” (University of Virginia Patent Foundation, priority 2023, published 2026)
Entries after “also recorded” stand apart in the source; their conditions may differ.

Legend:
[1] = system: Tyr and Lys sites of HeLa and HEK293T proteomes; assay: Proteome-wide competitive ABPP SILAC LC-MS/MS chemical proteomics of liganded Tyr/Lys sites; type: cell-based; conditions: glucose-deprived HEK293T cells, 25 μM, 2 h
Experimental: Preparation of SILAC proteomes for LC-MS/MS analysis. SILAC cell proteomes were fractionated to collect the supernatant and normalized to 2.3 mg/mL in PBS. ‘Heavy’ and ‘light’ proteomes were aliquoted (427 μL) and probe-modified proteins were conjugated to desthiobiotin-PEG-3-azide using copper-catalyze azide-alkyne cycloaddition, trypsinized into peptides using Trypsin/Lys-C Mix (Catalog No. V5071; Promega Corporation, Madison, Wisconsin, United States of America), enriched using PIERCE™ Avidin Agarose brand beads (Catalog No. 20219; Thermo Fisher Scientific Inc., Waltham, Massachusetts. United States of America), and prepared for nano-electrospray ionization-LC-MS/MS analysis as previously described in Hahm et al., 2020.
Data Analysis—Chemical Proteomics. Identification and analysis of peptides and proteins using LC-MS was accomplished using bioinformatics software and quality control parameter protocols as previously described in Hahm et al., 2020.
We performed quantitative liquid-chromatography tandem mass spectrometry (LC-MS/MS) chemical proteomic studies to identify the target protein and binding site(s) of SuTEx fragments with RNP granule modulating activity. […]
We detected ~8,700 probe-modified sites (Tyr and Lys) in our aggregate HeLa and HEK293T chemical proteomic analyses. […]

[2] = system: stress granules (α-G3BP1) in HeLa cells; assay: Dose-dependent inhibition of induced stress granules in HeLa cells by immunofluorescence; type: cell-based; conditions: 2 h
Experimental: FIGS. 15A-15C. […] (FIG. 15B) Box and whisker plot of the number of SGs per cell from immunofluorescence images of G3BP1+SuTEx fragment ligand treatments in [COMPOUND LEFT OUT]-stressed cells from FIG. 15A (“x” indicates the mean; the center line is the median). […] A two-sample Student's t-test was performed for statistical comparison. (FIG. 15C) The average number of SGs per cell from FIG. 15B was plotted as a function of HHS-166 concentrations from cellular treatments to estimate the EC50 (~8 μM) for [COMPOUND LEFT OUT]-induced SG inhibition in situ. Data shown are representative of n=2 biologically independent replicates.
Immunofluorescence. Immunofluorescence (IF) of HEK293T cells was performed as previously described in Ciancone et al., 2022. HeLa cells were seeded at 9.0×10^4 in a 24-well plate with 12-mm glass coverslips. The next day, the cells were treated with 25 μM SuTEx probe for 2 hours in DMEM medium without FBS. The cells were then treated with 75 μM NaAsO2 for 30 minutes and fixed with 3% paraformaldehyde in PBS for 15 minutes at room temperature (RT) and washed with PBS twice. The fixed cells were permeabilized with PBST (0.1% Triton X-100) for 15 minutes at room temperature and blocked with 5% goat serum in PBST for 30 minutes at RT. The cells were incubated with anti-G3BP1 antibody H-10 (Catalog No. sc-365338 at 1:200 dilution; Santa Cruz Biotechnology, Inc., Dallas, Texas, United States of America) for 2 hours at RT and washed with PBST (0.1% Tween-20) for 5 minutes three times. Next, cells were incubated with goat anti-mouse Alexa 594 antibody (Catalog No. 115-585-003 at 1:800 dilution; Jackson ImmunoResearch, West Grove, Pennsylvania, United States of America) for 30 minutes at RT. […] A CellProfiler pipeline was developed to quantify the number of stress granules under each condition. Briefly, cells were recognized as blue^+ (nuclei) red^+ (G3BP1) objects, and the red^+ granules that meet the shape and size threshold were identified and counted. Cells on the border of linages were excluded from the analysis for more accurate quantification.

Row | SMILES | number of reproducibly liganded sites in addition to EDC3 Y475 [1] | dose dependence of SG inhibition (in words) ([2]; 1-25 μM) | EC50 ([2]; Homo sapiens, in situ, 1-25 μM, n=2, read-out: EC50 for induced SG inhibition) [µM] | minimal effective concentration ([2]; Homo sapiens, p<0.001, read-out: concentration giving statistically significant decrease in SG formation) [µM]
1 | COc1ccc(S(=O)(=O)n2cc(CS(C)(=O)=O)nn2)cc1 [AHL-030, 1-((4-Methoxyphenyl)sulfonyl)-4-((methylsulfonyl)methyl)-1H-1,2,3-triazole] | 7 |  |  | 
2 | COc1ccc(S(=O)(=O)n2cc(C3CCCCC3)nn2)cc1 [HHS-166, 4-Cyclohexyl-1-((4-methoxyphenyl)sulfonyl)-111-1,2,3-triazole] |  | dose-dependent inhibition; also recorded: dose-dependent effects on SG formation | 8 | ≥ 12.5
